Four molecules from ChEMBL document CHEMBL5055672, “Design, Synthesis, Biological Evaluation, and Computational Studies of Novel Fluorinated Candidates as PI3K Inhibitors: Targeting Fluorophilic Binding Sites” (J Med Chem, 2021) can be followed below.

Each structure is given as a SMILES string.

Type in all cases: functional
Holding throughout (details): read-out: GI

Assay [1] relates to UO-31. Kind of assay: Cytotoxicity against human UO-31 cells assessed as growth inhibition at 10 uM after 48 hrs by sulforhodamine B assay. On the technique in general: Sulforhodamine B stains cellular protein and so reports cell mass.
Assay [2] deals with BT-549. Nature of the assay: Cytotoxicity against human BT-549 cells assessed as growth inhibition at 10 uM after 48 hrs by sulforhodamine B assay.
The test system of assay [3] is Malme-3M. Kind of assay: Cytotoxicity against human MALME-3M cells assessed as growth inhibition at 10 uM after 48 hrs by sulforhodamine B assay.
Assay [4] relates to CCRF-CEM. Kind of assay: Cytotoxicity against human CCRF-CEM cells assessed as growth inhibition at 10 uM after 48 hrs by sulforhodamine B assay.
Assay [5] is described as follows: Cytotoxicity against human Hs 578T cells assessed as growth inhibition at 10 uM after 48 hrs by sulforhodamine B assay.
Assay [6] has as its system ACHN. Nature of the assay: Cytotoxicity against human ACHN cells assessed as growth inhibition at 10 uM after 48 hrs by sulforhodamine B assay.
For assay [7], the system named is UACC-62. Nature of the assay: Cytotoxicity against human UACC-62 cells assessed as growth inhibition at 10 uM after 48 hrs by sulforhodamine B assay.
The test system of assay [8] is HCT-116. Kind of assay: Cytotoxicity against human HCT-116 cells assessed as growth inhibition at 10 uM after 48 hrs by sulforhodamine B assay.
For assay [9], the system named is SF-295. Kind of assay: Cytotoxicity against human SF-295 cells assessed as growth inhibition at 10 uM after 48 hrs by sulforhodamine B assay.
Assay [10] has as its system LOX IMVI. Kind of assay: Cytotoxicity against human LOX IMVI cells assessed as growth inhibition at 10 uM after 48 hrs by sulforhodamine B assay.
For assay [11], the system named is SNB-75. Nature of the assay: Cytotoxicity against human SNB-75 cells assessed as growth inhibition at 10 uM after 48 hrs by sulforhodamine B assay.
The test system of assay [12] is MDA-MB-468. Kind of assay: Cytotoxicity against human MDA-MB-468 cells assessed as growth inhibition at 10 uM after 48 hrs by sulforhodamine B assay.
In assay [13] the test system is NCI-H23. Nature of the assay: Cytotoxicity against human NCI-H23 cells assessed as growth inhibition at 10 uM after 48 hrs by sulforhodamine B assay.
Assay [14] deals with HL-60(TB). Kind of assay: Cytotoxicity against human HL-60(TB) cells assessed as growth inhibition at 10 uM after 48 hrs by sulforhodamine B assay.
In assay [15] the test system is SNB-19. Nature of the assay: Cytotoxicity against human SNB-19 cells assessed as growth inhibition at 10 uM after 48 hrs by sulforhodamine B assay.
Assay [16] relates to T47D. Nature of the assay: Cytotoxicity against human T47D cells assessed as growth inhibition at 10 uM after 48 hrs by sulforhodamine B assay.
For assay [17], the system named is OVCAR-8. Nature of the assay: Cytotoxicity against human OVCAR8 cells assessed as growth inhibition at 10 uM after 48 hrs by sulforhodamine B assay.
The subject of assay [18] is SR. Kind of assay: Cytotoxicity against human SR cells assessed as growth inhibition at 10 uM after 48 hrs by sulforhodamine B assay.
In assay [19] the test system is 786-0. Nature of the assay: Cytotoxicity against human 786-0 cells assessed as growth inhibition at 10 uM after 48 hrs by sulforhodamine B assay.
For assay [20], the system named is SN12C. Nature of the assay: Cytotoxicity against human SN12C cells assessed as growth inhibition at 10 uM after 48 hrs by sulforhodamine B assay.
In assay [21] the test system is MDA-MB-231. Nature of the assay: Cytotoxicity against human MDA-MB-231 cells assessed as growth inhibition at 10 uM after 48 hrs by sulforhodamine B assay.
Assay [22] deals with HOP-62. Kind of assay: Cytotoxicity against human HOP-62 cells assessed as growth inhibition at 10 uM after 48 hrs by sulforhodamine B assay.
Assay [23] relates to U-251. Nature of the assay: Cytotoxicity against human U-251 cells assessed as growth inhibition at 10 uM after 48 hrs by sulforhodamine B assay.
Assay [24] relates to CAKI-1. Nature of the assay: Cytotoxicity against human CAKI-1 cells assessed as growth inhibition at 10 uM after 48 hrs by sulforhodamine B assay.
Assay [25] has as its system HOP-92. Nature of the assay: Cytotoxicity against human HOP-92 cells assessed as growth inhibition at 10 uM after 48 hrs by sulforhodamine B assay.
For assay [26], the system named is K562. Kind of assay: Cytotoxicity against human K562 cells assessed as growth inhibition at 10 uM after 48 hrs by sulforhodamine B assay.
Assay [27] concerns MOLT-4. Nature of the assay: Cytotoxicity against human MOLT-4 cells assessed as growth inhibition at 10 uM after 48 hrs by sulforhodamine B assay.
Assay [28] concerns SF-539. Kind of assay: Cytotoxicity against human SF-539 cells assessed as growth inhibition at 10 uM after 48 hrs by sulforhodamine B assay.
Assay [29] deals with A549. Kind of assay: Cytotoxicity against human A549 cells assessed as growth inhibition at 10 uM after 48 hrs by sulforhodamine B assay.
The test system of assay [30] is SF-268. Nature of the assay: Cytotoxicity against human SF-268 cells assessed as growth inhibition at 10 uM after 48 hrs by sulforhodamine B assay.
The test system of assay [31] is MCF7. Kind of assay: Cytotoxicity against human MCF7 cells assessed as growth inhibition at 10 uM after 48 hrs by sulforhodamine B assay.
The subject of assay [32] is NCI/ADR-RES. Kind of assay: Cytotoxicity against human NCI-ADR-RES cells assessed as growth inhibition at 10 uM after 48 hrs by sulforhodamine B assay.
For assay [33], the system named is SK-MEL-2. Nature of the assay: Cytotoxicity against human SK-MEL-2 cells assessed as growth inhibition at 10 uM after 48 hrs by sulforhodamine B assay.
Assay [34] has as its system NCI-H522. Kind of assay: Cytotoxicity against human NCI-H522 cells assessed as growth inhibition at 10 uM after 48 hrs by sulforhodamine B assay.
Assay [35] concerns SK-OV-3. Nature of the assay: Cytotoxicity against human SK-OV-3 cells assessed as growth inhibition at 10 uM after 48 hrs by sulforhodamine B assay.
The subject of assay [36] is RXF 393. Nature of the assay: Cytotoxicity against human RXF 393 cells assessed as growth inhibition at 10 uM after 48 hrs by sulforhodamine B assay.
Assay [37] concerns A498. Kind of assay: Cytotoxicity against human A498 cells assessed as growth inhibition at 10 uM after 48 hrs by sulforhodamine B assay.
In assay [38] the test system is UACC-257. Kind of assay: Cytotoxicity against human UACC-257 cells assessed as growth inhibition at 10 uM after 48 hrs by sulforhodamine B assay.

`O=S(=O)(Oc1ccc(-c2nnc(Nc3ccccc3)s2)cc1)C(F)(F)C(F)(F)C(F)(F)C(F)(F)C(F)(F)C(F)(F)C(F)(F)C(F)(F)F`: the inhibition of growth at 10 µM in [1] amounted to 19.4%; in [2] it was 12.9%; in [3] it was 11.7%; in assay [4] it was 12.1%.
Take `COC(=O)/C=C1\S/C(=N\N=C\c2ccc(C(F)(F)F)cc2)N(c2ccccc2)C1=O`: the inhibition of growth at 10 µM in assay [1] was found to be 18.3%; in [5], 37.6%; in [6], 40.1%; in [7] it was 18.4%; in [8] it was 32.4%; in assay [9], 16.6%. Also, the inhibition of growth at 10 µM is 13.6% in assay [2]; 19.9% in assay [10]; 39.3% in assay [11]; 24.6% in assay [12]; 10.1% in [13]; 16.7% in assay [14]. Further, the inhibition of growth at 10 µM in [15] amounted to 25.8%; in [16], 20.4%; in assay [17], 26.6%; in [18] it was 19.6%; in assay [19] it was 11.1%; in assay [20], 24.1%. Moreover, the inhibition of growth at 10 µM in assay [21] came to 19.8%; in [22] it was 36.6%; in assay [23] it was 29.2%; in assay [24] it was 28%; in assay [25], 12%; in assay [26], 21.4%. The inhibition of growth at 10 µM in assay [27] came out at 12.8%; in assay [28] it was 21%; in assay [29], 12.4%; in assay [30] it was 19.8%; in [31] it was 25.2%; in assay [32], 11.5%.
For the molecule `COC(=O)/C=C1\S/C(=N\N=C\c2ccc(OS(=O)(=O)C(F)(F)C(F)(F)C(F)(F)C(F)(F)C(F)(F)C(F)(F)C(F)(F)C(F)(F)F)cc2)N(c2ccccc2)C1=O`, the inhibition of growth at 10 µM came to 34.1% in assay [5]; 11.6% in assay [6]; 13.5% in assay [7]; 16.9% in assay [33]; 10.5% in [8]; 22% in [9]. For the same molecule, the inhibition of growth at 10 µM is 37.8% in assay [11]; 22.1% in assay [34]; 36.3% in assay [15]; 22.1% in [4]; 26.6% in assay [19]; 15.2% in assay [21]. Also, the inhibition of growth at 10 µM in assay [22] came to 27%; in [35], 14.1%; in [23] it was 36.2%; in assay [24], 20%; in assay [36], 39.7%; in assay [25] it was 25.1%. The inhibition of growth at 10 µM stood at 12.1% in [28], 19.3% in assay [30], 11.2% in assay [31] and 12.9% in assay [37].
In the case of `O=S(=O)(Oc1ccc(/C=N/NC(=S)Nc2ccccc2)cc1)C(F)(F)C(F)(F)C(F)(F)C(F)(F)F`, the inhibition of growth at 10 µM is 11.8% in assay [1], 14.3% in [38] and 14.2% in assay [31].
